This is an account of results in patent US11078245B2, “Colon and pancreas cancer peptidomimetics” (PRECISION BIOLOGICS, INC., priority 2010, dated 2021).

Assay [1] has as its system CFPAC1 culture supernatant. The experiment in a line: Peptide competition ELISA on CFPAC1 culture supernatant-coated plates. Format: binding, human. An excerpt: FIG. 15A is a bar graph showing the percent blocking of NEO-101 by peptides (identified by biopanning an M13 phage library) on CFPAC1 culture supernatant-coated plates. FIG. 15B is a bar graph of OD values showing blocking of NEO-101 by peptides (identified by biopanning an M13 phage library) on CFPAC1 culture supernatant-coated plates.
Next, the inhibition of NEO-101 beads binding to CFAC1 Cells (rosetted cells) by peptides 4-1-4C12 and 4-1-4C12-R2 was investigated, as shown in FIG. 14A. FIG. 14B was the results from positive control with 4B6 in competitive beads assay. […] Therefore, the peptide 4-1-4-C12 is a peptidomimetic of the NPC-1 epitope and may be used to elicit a NPC-1 specific antibodies.

In a further assay the test system is CFPAC1 cells. Briefly: NEO-101-coupled Dynal beads rosette assay. Format: cell-based, human. Particulars: for Positive rosette cells (%): Dynal beads coupled with NEO-101, premixed with M13 clone. On the procedure:
The M13 clones identified by the biopanning were also immunoassayed using magnetic beads. Aliquots of 5 μl M13 phage (10^11/10 μl) were mixed with 10 μl NEO-101-coupled Dynal® beads at RT for 20 min on a rotator. CFPAC1 cells (30 μl of 10^6 cells/ml) were added and incubated at 4° C. for 30 min. Rosetted cells were counted (>8 beads/cell).

Another assay concerns NEO-101. Briefly: Biotinylated peptide binding ELISA. Particulars: biotinylated peptide on NEO-101 coated plate. On the procedure: To solve the poor binding of peptides to 96 well plate, peptides were biotinylated using EZ-link micro NHS Biotinylation kit (Pierce Cat #21955), and labeling efficiency checked by dot blot (50%). The biotinylated peptide binding was analyzed in ELISA by adding 100 μl/well of NEO-101 (1 μg/ml) in CBS buffer to 96 well plate and incubating at 4° C. overnight, followed by three washes with TBST (0.05% Tween). The solution was blocked with 200μ/of 1% milk in TBS at RT for 20 min. Aliquots of 100 μl peptide-biotin ([…]) in 0.1% milk-TBS were added, and incubated at RT of 2 hr, followed by three washes with TBST. Streptavidin-HRP (100 μl of 1:2000 diluted in 1:10 diluted blocking buffer) was added, and the wells incubated at RT for 1 hr, followed by three washed. TMB was then added, and the wells were read at 450 nm. Positive controls for NPC-1C binding used 4B6-biotin. The results are shown in FIG. 11, which indicates biotinylated peptides bind to NPC-1C coated plate.

For another assay, the system named is Colon Ag. Briefly: ELISA of NEO-101 binding inhibition by peptides against Colon Ag. More on the design: species or system human. On the procedure: An ELISA analysis of the NEO-101 binding inhibition by peptide 4-1-3-C9 and 4-1-4-C12 against Colon Ag was conducted. Aliquots of 100 μl/well Colon Ag (3 μg/ml in CBS buffer) in 96 well plate were incubated at 4° C. overnight, and the wells washed three times with TBST (0.05% Tween). The wells were blocked with 200 μl of 1% milk at RT for 1 hour. A pre-mix of NEO-101-biotin and test peptide was added at 100 μl/well and incubated at RT of 1 hour, followed by three washes with TBST. Streptavidin-HRP (100 μl of 1:2000 dilution) was added and the reaction incubated at RT for 1 hour, and the wells washed three time. TMB was added, and the wells were read at 450 nm. The control was NEO-101-biotin.

A further assay has as its system NEO-101 antibody. The experiment in a line: Immunofluorescence of 293T cells transfected with MUC5AC truncation constructs. It counts as cell-based. Particulars: 2 μg/ml NEO-101 antibody. The procedure:
Six truncation constructs were made representing C-terminal truncations of the full-length MUC5AC protein (SEQ ID NO: 36).
293T cells were cultured on FBS coated cover slips for 24 hours. Cells were transiently transfected with 2 μg of MUC5AC constructs of Table 8 with LIPOFECTAMINE®. Cells were grown for about 72 hours, fixed with about 4% PFA in PBS, washed with PBS, permeabilized with about 0.2% […] in PBS and washed with PBS. Cells were then blocked with about 1% BSA in PBS, and about 2 μg/ml NEO-101 antibody was added to sample wells and about 2 μg/ml of an Isotype control was added for 1 hour at room temp. Cells were washed with PBS and second anti human-FITC antibody (1:500) was added to all wells and to the second antibody control wells. Cells were washed and mounted on slides with DAPI hard mount. Cover slides were allowed to sit over night at about 4° C. Slides were visualized with a Nikon Eclipse Ti microscope with an Andor camera. At least 3 random fields were counted per transfection.

“SLPDDWFRYINYSLPDDWFRYINY (NPC-1 epitope peptidomimetic) [Peptide 4-1-4C12-R2]”: in assay [1], the “competition against bound CFPAC1 antigen with NEO-101 binding” value is recorded as “significant competition”.
Regarding “YSHSFPEDYFRYTNQKGGGS (NPC-1 epitope peptidomimetic) [Peptide 4-1-3-C9]”, in the assay on CFPAC1 cells, the “blocking of NEO-101-coupled beads binding to CFPAC1 cells” value (“blocking … to CFPAC1 cells” below) was “blocked” and the “Positive rosette cells (%)” value is 0%. Moreover, in the assay on NEO-101, the NEO-101 binding result is given as “Yes”. For the same molecule, the “Blocking of NEO-101 antibody binding to colon Ag” value (“Blocking … to colon Ag” below) in the assay on Colon Ag is on record as “Yes”. Moreover, the “competition against bound CFPAC1 antigen with NEO-101 binding” value in assay [1] was “significant competition”.
On to “YSHSVHAIEDNWSPRGGGGS (NPC-1 epitope peptidomimetic) [Peptide 4-1-3-C11, reference compound]”, for which the “Positive rosette cells (%)” value with CFPAC1 cells was 38%. Moreover, the NEO-101 binding entry in the assay on NEO-101 is given as “No”. In the assay on Colon Ag, the “Blocking … to colon Ag” value is on record as “No”.
As for “YSHSWHTLPEKSLDENGGGS (NPC-1 epitope peptidomimetic) [Peptide 4-1-2-C5]”, in the assay with CFPAC1 cells, the “blocking … to CFPAC1 cells” value is “blocked” and the “Positive rosette cells (%)” value was 0%.
As for “YSHSWHTLPESGEVTSGGGS (NPC-1 epitope peptidomimetic) [Peptide 4-1-3-C8]”, in the assay with CFPAC1 cells, the “blocking … to CFPAC1 cells” value is “blocked” and the “Positive rosette cells (%)” value is 0%. In addition, the NEO-101 binding result in the assay with NEO-101 is listed as “Yes”. In addition, the “Blocking … to colon Ag” value with Colon Ag was “No”.

B1: 1-136 (protein)
chain: ATMSVGRRKLALLWALALALACTTTHSQPVTRDCHLRCTWTKWFDVDFPSPGPHGGDKETYNNIIRSGEKICRRPEEITRLQCRAESHPEVSIEHLGQVVQCSREEGLVCRNQDQQGPFKMCLNYEVRVLCCETPK
modifications: MUC5AC truncation construct (136)
Regarding B1, in the assay with NEO-101 antibody, the “Binds NPC-1?” value was “No”.

B2: Construct 1-289: C-terminal truncation construct of MUC5AC, SEQ ID NO: 49 (protein)
chain: ATMSVGRRKLALLWALALALACTTTHSQPVTRDCHLRCTWTKWFDVDFPSPGPHGGDKETYNNIIRSGEKICRRPEEITRLQCRAESHPEVSIEHLGQVVQCSREEGLVCRNQDQQGPFKMCLNYEVRVLCCETPKGCPVTSTPVTAPSTPSGRATSPTQSTSSWQKSRTTTLVTTSTTSTPQTSTTSAPTTSTTSAPTTSTTSAPTTSTTSTPQTSISSAPTSSTTSAPTSSTISARTTSIISAPTTSTTSSPTTSTTSATTTSTTSAPTSSTTSTPQTSKTSAATSS
modifications: MUC5AC truncation construct (289)
With B2, in the assay with NEO-101 antibody, the “Binds NPC-1?” value is reported as “binding activity”.

B3: 1-289 (protein)
chain: ATMSVGRRKLALLWALALALACTTTHSQPVTRDCHLRCTWTKWFDVDFPSPGPHGGDKETYNNIIRSGEKICRRPEEITRLQCRAESHPEVSIEHLGQVVQCSREEGLVCRNQDQQGPFKMCLNYEVRVLCCETPKGCPVTSTPVTAPSTPSGRATSPTQSTSSWQKSRTTTLVTTSTTSTPQTSTTSAPTTSTTSAPTTSTTSAPTTSTTSTPQTSISSAPTSSTTSAPTSSTISARTTSIISAPTTSTTSSPTTSTTSATTTSTTSAPTSSTTSTPQTSKTSAATSS
modifications: MUC5AC truncation construct (289)
Turning to B3, the “Binds NPC-1?” value in the assay with NEO-101 antibody is on record as “Yes”.

B4: Construct 1-187: C-terminal truncation construct of MUC5AC, SEQ ID NO: 48 (protein)
chain: ATMSVGRRKLALLWALALALACTTTHSQPVTRDCHLRCTWTKWFDVDFPSPGPHGGDKETYNNIIRSGEKICRRPEEITRLQCRAESHPEVSIEHLGQVVQCSREEGLVCRNQDQQGPFKMCLNYEVRVLCCETPKGCPVTSTPVTAPSTPSGRATSPTQSTSSWQKSRTTTLVTTSTTSTPQTSTT
modifications: MUC5AC truncation construct (187)
As to B4, the “Binds NPC-1?” value in the assay with NEO-101 antibody is “binding activity”.

B5: 1-187 (protein)
chain: ATMSVGRRKLALLWALALALACTTTHSQPVTRDCHLRCTWTKWFDVDFPSPGPHGGDKETYNNIIRSGEKICRRPEEITRLQCRAESHPEVSIEHLGQVVQCSREEGLVCRNQDQQGPFKMCLNYEVRVLCCETPKGCPVTSTPVTAPSTPSGRATSPTQSTSSWQKSRTTTLVTTSTTSTPQTSTT
modifications: MUC5AC truncation construct (187)
Regarding B5, the “Binds NPC-1?” value in the assay with NEO-101 antibody is “Yes”.

B6: Construct 1-85: C-terminal truncation construct of MUC5AC, SEQ ID NO: 45 (protein)
chain: ATMSVGRRKLALLWALALALACTTTHSQPVTRDCHLRCTWTKWFDVDFPSPGPHGGDKETYNNIIRSGEKICRRPEEITRLQCRA
modifications: MUC5AC truncation construct (85)
With B6, the “Binds NPC-1?” value in the assay on NEO-101 antibody is recorded as “no binding”.

B7: 1-85 (protein)
chain: ATMSVGRRKLALLWALALALACTTTHSQPVTRDCHLRCTWTKWFDVDFPSPGPHGGDKETYNNIIRSGEKICRRPEEITRLQCRA
modifications: MUC5AC truncation construct (85)
As for B7, the “Binds NPC-1?” value with NEO-101 antibody is recorded as “No”.

B8: 1-151 (protein)
chain: ATMSVGRRKLALLWALALALACTTTHSQPVTRDCHLRCTWTKWFDVDFPSPGPHGGDKETYNNIIRSGEKICRRPEEITRLQCRAESHPEVSIEHLGQVVQCSREEGLVCRNQDQQGPFKMCLNYEVRVLCCETPKGCPVTSTPVTAPSTP
modifications: MUC5AC truncation construct (151)
As for B8, the “Binds NPC-1?” value in the assay on NEO-101 antibody is listed as “Yes”.

B9: Construct 1-338: C-terminal truncation construct of MUC5AC, SEQ ID NO: 50 (protein)
chain: ATMSVGRRKLALLWALALALACTTTHSQPVTRDCHLRCTWTKWFDVDFPSPGPHGGDKETYNNIIRSGEKICRRPEEITRLQCRAESHPEVSIEHLGQVVQCSREEGLVCRNQDQQGPFKMCLNYEVRVLCCETPKGCPVTSTPVTAPSTPSGRATSPTQSTSSWQKSRTTTLVTTSTTSTPQTSTTSAPTTSTTSAPTTSTTSAPTTSTTSTPQTSISSAPTSSTTSAPTSSTISARTTSIISAPTTSTTSSPTTSTTSATTTSTTSAPTSSTTSTPQTSKTSAATSSTTSSSGTTPSPVTTTSTASVSKTSTSHVSVSKTTHSQPVTRCTHHHHHH
modifications: MUC5AC truncation construct (338)
B9: in the assay with NEO-101 antibody, the “Binds NPC-1?” value is “binding activity”.

B10: 1-338 (protein)
chain: ATMSVGRRKLALLWALALALACTTTHSQPVTRDCHLRCTWTKWFDVDFPSPGPHGGDKETYNNIIRSGEKICRRPEEITRLQCRAESHPEVSIEHLGQVVQCSREEGLVCRNQDQQGPFKMCLNYEVRVLCCETPKGCPVTSTPVTAPSTPSGRATSPTQSTSSWQKSRTTTLVTTSTTSTPQTSTTSAPTTSTTSAPTTSTTSAPTTSTTSTPQTSISSAPTSSTTSAPTSSTISARTTSIISAPTTSTTSSPTTSTTSATTTSTTSAPTSSTTSTPQTSKTSAATSSTTSSSGTTPSPVTTTSTASVSKTSTSHVSVSKTTHSQPVTRCTHHHHHH
modifications: MUC5AC truncation construct (338)
In the case of B10, the “Binds NPC-1?” value in the assay on NEO-101 antibody is listed as “Yes”.
